# Data as given in patent US7611863B2, “Selective staining of biomembranes using voltage-sensitive dyes” (Max-Planck-Gesellschaft zur Foerderung der Wissenschaften …, priority 2004, dated 2009).
# Legend:
# [1] = Enzyme induced staining of liposomes; type: biochemical; conditions: 100 μM lipid; 0.43 μM and 4.31 μM substrate
# Experimental: Enzyme induced staining of liposomes. We studied enzymatic hydrolysis of Di-4-ASPP phosphate in the presence of large unilamellar POPC vesicles (LUVs) to observe enzyme induced staining. Tris-NaCl Buffer was used for the preparation of all solutions. To 550 μl of a 200 μM solution of POPC vesicles in a cuvette, an equal volume of Di-4-ASPP phosphate was added to yield concentrations between 0.1 μM and 10.7 μM. 10 μl of PLAP (18.6 DEA Units/ml) were added and the suspension was mixed by pipetting. The cuvette was held at 25° C. Fluorescence (excitation 488 nm, emission 600 nm) was recorded before and after addition of the enzyme with a resolution of 1 sec. Initial velocities were determined from the slope of the first 10 to 20 seconds of the fluorescence traces.
# Enzyme Induced staining of liposomes. Now, we combined the two previous experiments. The dye phosphate was hydrolysed by phosphatase in the presence of lipid vesicles. The reaction was observed by the enhancement of fluorescence due to the enhanced binding of the dye alcohol to the lipid. The fluorescence intensity of a vesicle suspension (100 μM lipid) was recorded before and after the addition of the phosphatase with 0.43 μM and 4.31 μM Di-4-ASPP phosphate. […] This corresponds to the ratio of the fluorescence lipid titration data of alcohol and phosphate at 100 μM lipid.
# [2] = test system: phosphatase expressing cells; assay: Destaining of cells after enzyme induced staining; type: cell-based
# Experimental: FIG. 18. Destaining. Cells were incubated with Di-12P-ASPBS for 30 seconds, then the medium containing the dye precursor was removed and the cells were washed twice in buffer containing no dye. Fluorescence images were recorded with excitation filter 450/50 nm, emission filter 510 nm, dichroic mirror 505 nm. A. Brightfield image of cells and fluorescence images of cells illustrating destaining of the cell membrane by diffusion of the dye into the bulk medium. B. Time course of destaining. The maximum fluorescence intensity of the membrane is plotted vs. time.
# Destaining. […] Cells were incubated with Di-12P-ASPBS for 30 seconds, then the medium containing the dye precursor was removed and the cells were washed twice in buffer containing no dye.
# [3] = test system: HEK 293 cells expressing fusion protein of plasma membrane anchor and PLAP; assay: Staining of HEK 293 cells through overexpressed membrane-bound phosphatase; type: cell-based
# Source text: FIG. 13A to C: Staining of transfected HEK 293 cells with a voltage sensitive dye by activation of binding through an overexpressed, membrane-bound phosphatase. HEK 293 cells were cotransfected with a vector coding for GFP and a vector coding for a fusion protein of a plasma membrane anchor and phosphatase from the human placenta. A. fluorescence image showing the GFP fluoresence of a transfected cell (excitation filter 450/50 nm, emission filter 510 nm longpass; dichroic mirror: 505 nm). B. The voltage sensitive fluorescent dye Di-8-phosphato-ASPBS (cf. FIG. 11, bottom) was added to the incubation medium. […] C. […] The images shown are optimized for contrast and intensity.
# (§1) FIG. 16. Genetically Targeted Staining of HEK293 cells with 1 mM Di-10P-ASPBS. A mixture of stable clones either expressing the membrane-bound phosphatase construct or cytosolic GFP were cultured on the same dish. (A) From left to right: (i) Brightfield image of cells. (ii) Fluorescence image of cells showing cells expressing cytosolic GFP (excitation filter 450/50 nm, emission filter 510 nm, dichroic mirror 505 nm). (iii) Cells expressing phosphatase as obtained by subtraction of GFP expressing cells from image i. (iv) Fluorescence image of cells with filters exc. 535/50 nm, em. 610/75 nm; dichroic mirror 535 nm. The image is normalized to the same level as in row B. (v) autoleveled image iv, showing fluorescence crosstalk of GFP. (B) Enzyme induced staining of cells as measured with filter set exc. 535/50 nm, em. 610/75 nm; dichroic mirror 535 nm. The membrane fluorescence increases over time. (C). Inverted and contrast-enhanced fluorescence images corresponding to row B. (D) Difference images. The image A/iv was subtracted from the images in row B. The resulting images were inverted and contrast was enhanced.
# as §1, with “17.” for “16.”, “200 nM Di-12P-ASPBS.” for “1 mM Di-10P-ASPBS.”, “difference” for “and contrast-enhanced fluorescence images corresponding to row B. (D) Difference”, “enhanced. (D) Contrast enhanced images of row C.” for “enhanced.”
# Enzyme induced staining. The dye precursors Di-10P-ASPBS and Di-12P-ASPBS were used to effect enzyme induced staining on cells. To test whether the staining is selective, a mixture of two cell populations was cultured in the same dish. One of these stably expressed the phosphatase construct, while the other was stably expressing GFP as a negative marker.
Compound,enhancement of fluorescence intensity of vesicle suspension after addition of phosphatase [1],membrane leaflet to which the dye binds [2],fluorescence of stained membranes over time after washing ([2]; diffusion of bound dye to bulk medium),"selectivity of staining after 30 seconds incubation and washing ([2]; medium removed, washed twice)","selectivity of staining among precursor dyes ([3]; HEK293 and MDCK cells overexpressing ArtPlasMA-PLAP, Di-8P, Di-10P, Di-12P compared)",staining intensity and confinement to phosphatase expressing cells ([3]; compared with Di-10P-ASPBS),"enzyme induced membrane staining in mixed cell populations ([3]; phosphatase clones and GFP clones in same dish, 1 mM Di-10P-ASPBS, 200 nM Di-12P-ASPBS)"
CCCCN(CCCC)c1ccc(/C=C/c2cc[n+](CCCOP(=O)([O-])O)cc2)cc1 [Di-4-ASPP phosphate],about sixfold,,,,,,
Di-12-phosphato-ASPBS [Di-12P-ASPBS],,binds almost exclusively to the extracellular leaflet,the fluorescence intensity of the stained membranes declined,selective staining of phosphatase expressing cells could be observed,best selectivity,distinctly better,allowed enzyme induced membrane staining
